Consider three compounds from paper PMC8229181, “Chemical Characterization and Anti-Inflammatory Activity of Phytoconstituents from Swertia alata” (Plants, 2021).

Experiment [1] concerns carrageenan induced rat paw edema. Briefly: Carrageenan-induced rat paw edema method. The format is in vivo, Wistar albino rat. The following applies: for Increase in Paw Edema (Mean ± SEM): 3 h after inducing edema, rat. The source says:
Carageenan was used to induced paw Edema in Wistar albino rat. Carrageenan induced paw edema is a standard assay for acute inflammation that is effectively employed to evaluate the phytoisolate against anti-inflammatory activity. Edema is produced by a sequential release of inflammatory mediators such as histamine, serotonin, kinnins, prostaglandins and bradykinins, which leads to fluid accumulation. Edema is characteristic of an acute inflammatory response. The release of histamine or serotonin occurs in the first phase (up to 1 h) and the second phase (over 1 h) is associated with the production of bradykinins. It is well known that the third phase of the edema induced by carrageenan, in which the edema reaches its highest volume, is characterized by the presence of prostaglandins and other compounds of slow reaction. Previous studies have shown that phytocompounds of S. alata play an important pharmacological role in inflammation. […] Moreover, several studies support that S. alata species have shown antioxidative effects. Inhibition of COX by S. alata leads to a decrease in all prostaglandin and thromboxane synthesis, which accounts for the beneficial anti-inflammatory and prevents ulcerogenic effects. […] Based on the antioxidant effect, SA4 may involve the inhibition of cyclooxygenase/prostaglandin-endoperoxide synthase (PGHS-1 and PGHS-2), and regulatory enzymes, involved in the biosynthesis of prostaglandin (PG) which is strongly implicated in inflammation.
The anti-inflammatory activity of isolated compound was evaluated on Wistar albino rat using carrageenan induced rat paw edema method as per the procedure described in earlier research. The animals were divided into groups, consisting of five rats in each group. The prepared compounds were administered orally at doses of 2, 4, 8 mg/kg body weight (oral gavage) and the volume of paw was determined plethysmographically (Ugo-Basile, Gemonio (VA), Italy). […] Carrageenan (0.1 mL, 1.0% w/v in 0.9% of normal saline) was injected after half an hour into the sub-plantar tissue of the rat’s hind paw. The paw volume was measured at hourly intervals for 3 h (0, 1, 2, and 3 h) and the percent inhibition of edema was calculated using the following formula:% inhibition = (1 − Vs/Vc × 100),(1) where, Vs = paw volume in sample treated group, Vc = paw volume in control group.

The next experiment has as its target human recombinant COX-2 (Homo sapiens, UniProt P35354). Briefly: In vitro COX-2 inhibitory assay (enzyme immunoassay kit). The experiment is classed as biochemical. To be noted: human recombinant COX-2, enzyme immunoassay kit.
The next experiment has as its target T1, ovine COX-1 (Ovis aries, UniProt P05979).
T1 construct: purchased Cayman Chemicals Inc., Ann Arbor, MI, USA 560131
T1 sequence (P05979 25-600): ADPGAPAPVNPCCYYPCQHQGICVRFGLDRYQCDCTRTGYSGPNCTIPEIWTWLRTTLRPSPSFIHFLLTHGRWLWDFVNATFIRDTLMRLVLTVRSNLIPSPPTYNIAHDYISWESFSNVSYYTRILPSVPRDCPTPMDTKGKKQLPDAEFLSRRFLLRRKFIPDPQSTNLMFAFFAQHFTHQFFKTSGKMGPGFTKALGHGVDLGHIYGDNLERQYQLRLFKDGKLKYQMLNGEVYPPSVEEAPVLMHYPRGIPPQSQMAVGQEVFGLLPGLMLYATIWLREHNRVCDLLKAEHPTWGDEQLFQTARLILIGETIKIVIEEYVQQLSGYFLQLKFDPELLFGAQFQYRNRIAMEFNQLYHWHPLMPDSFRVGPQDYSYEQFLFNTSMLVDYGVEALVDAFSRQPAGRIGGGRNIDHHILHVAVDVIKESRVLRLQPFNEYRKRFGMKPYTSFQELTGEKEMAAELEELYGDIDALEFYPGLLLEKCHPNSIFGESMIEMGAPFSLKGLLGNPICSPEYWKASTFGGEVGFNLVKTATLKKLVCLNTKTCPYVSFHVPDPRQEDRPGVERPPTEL
Briefly: In vitro COX-1 inhibitory assay (enzyme immunoassay kit). The experiment is classed as biochemical. The following applies: ovine COX-1, enzyme immunoassay kit.

The structures appear in SMILES notation.

Sequence of human recombinant COX-2 (P35354 18-604): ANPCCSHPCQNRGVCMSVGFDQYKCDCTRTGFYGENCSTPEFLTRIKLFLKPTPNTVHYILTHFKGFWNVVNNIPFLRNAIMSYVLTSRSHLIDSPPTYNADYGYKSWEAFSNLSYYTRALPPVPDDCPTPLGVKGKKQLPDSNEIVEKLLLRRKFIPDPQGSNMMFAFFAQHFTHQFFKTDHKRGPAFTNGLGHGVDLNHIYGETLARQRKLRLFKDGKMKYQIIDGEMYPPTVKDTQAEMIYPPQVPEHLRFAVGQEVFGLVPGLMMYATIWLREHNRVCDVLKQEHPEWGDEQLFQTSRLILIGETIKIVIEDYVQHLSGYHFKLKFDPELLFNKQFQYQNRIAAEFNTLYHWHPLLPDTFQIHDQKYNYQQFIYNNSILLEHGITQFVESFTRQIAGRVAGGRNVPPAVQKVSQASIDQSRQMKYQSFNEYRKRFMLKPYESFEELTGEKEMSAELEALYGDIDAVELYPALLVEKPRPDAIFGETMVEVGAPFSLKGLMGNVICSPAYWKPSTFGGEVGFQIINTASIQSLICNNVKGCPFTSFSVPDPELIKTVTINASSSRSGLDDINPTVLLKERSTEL
Protocol for human recombinant COX-2: (§1) The enzymatic assay was performed as per the manufacturer’s assay instructions and standard literature [48]. COX-1 and COX-2 enzymatic activity provides a simple, sensitive, and high-throughput adaptable method to detect the peroxidase activity of COX in biological samples or purified/crude enzyme preparations. The kit includes COX-1 and COX-2 specific inhibitors to differentiate the activity of COX-1 and COX-2 as well as other peroxidases, which may be present in the sample [49].
Protocol for ovine COX-1: as §1

As for `COc1ccc2c(c1)c(CC(=O)O)c(C)n2C(=O)c1ccc(Cl)cc1` [Indomethacin, reference compound], in experiment [1] (reference drug, oral (8 mg/kg; 21 mg/kg elsewhere in the source)), the “Increase in Paw Edema (Mean ± SEM)” value worked out at 0.15 ± 0.02 mL.

On to `CC1(C)CC[C@]2(C(=O)O)CC[C@]3(C)C(=CC[C@@H]4[C@@]5(C)CC[C@H](O)C(C)(C)[C@@H]5CC[C@]43C)[C@@H]2C1` [SA-1, oleanolic acid], for which the “Increase in Paw Edema (Mean ± SEM)” value in experiment [1] (2 mg/kg oral) came out at 0.29 ± 0.00 mL; in experiment [1] (4 mg/kg oral) it was 0.27 ± 0.22 mL; in experiment [1] (8 mg/kg oral) it was 0.23 ± 0.01 mL.

In the case of `CC(C)C1CCC2(C(=O)O)CCC3(C)C(=CCC4C5(C)CCC(O)C(C)(C)C5CCC43C)C12` (stereo not shown) [SA-4, 3-hydroxylup-12-(13)-ene-17-carboxylic acid], the figures for the “Increase in Paw Edema (Mean ± SEM)” value in experiment [1] (2 mg/kg oral), in experiment [1] (4 mg/kg oral) and in experiment [1] (8 mg/kg oral) were 0.28 ± 0.00 mL, 0.26 ± 0.22 mL and 0.17 ± 0.01 mL, respectively. The “development of edema at the third hour after treatment” value in experiment [1] (8 mg/kg, third hour, p < 0.05) is “significantly inhibited”. For the same compound, the 50% inhibitory concentration (IC50) at human recombinant COX-2 was found to be 61.7 µM; on ovine COX-1, 104 µM.
